Laboratory results published in patent US20260315477A1, “THERAPEUTIC APPROACH TO BLOCK TERMINAL EXHAUSTION OF T CELLS AND SYNERGIZETHE EFFICACY OF T CELL IMMUNOTHERAPIES” (priority 2023, published 2026).
“Also recorded” adds a separate entry of the source.

Columns and labels:
[1] = biological target: KDM5A and KDM5B; conditions: cited from earlier work
[2] = system: dysfunctional human CD8 T cells; assay: In vitro model of human CD8 T cell dysfunction (chronic TCR plus TGFβ1 stimulation, day 28): effector functions, polyfunctionality, memory programs; format: cell-based; conditions: for effector functions of human TEX cells: FIGS. 49A-49E
[3] = cited from earlier work
[4] = system: myeloma cells; conditions: cited from earlier work
[5] = system: H3K4me3; conditions: myeloma cells; cited from earlier work
[6] = system: AML cells; assay: Tumor-killing activity of treated dysfunctional human CD8 T cells (coculture with AML cells, 18 hr); format: cell-based; conditions: with TGFβ1 blockade (TGFBR1 blocker); 25 μM GSK467; days 14-28
[7] = system: B16-F10-GP33 melanoma cells; assay: In vitro tumor cell death of B16 melanoma cells; format: cell-based; conditions: 24, 48 and 72 hours, different doses
Source text: Ordinary two-way ANOVA test, Dunnett's test. Error bars indicate SEM. N=4 replica of 2 independent experiments.

[8] = system: other Jumonji family members; conditions: cited from earlier work
[9] = system: Tprog, Tcyto and Tterm CD8 T cells; conditions: mouse, in vivo
[10] = system: tumor-specific CD8 T cells; assay: Tumor-infiltrating lymphocyte analysis in CT2A-gp33 glioma model; format: in vivo, mouse; conditions: combined with PD-L1 blockade
Protocol: CT2A-gp33 Glioma Model: The efficacy of GSK467 therapy was tested using CT2A-gp33 glioma model with gp33-specific P14 CD8 T cells adoptively transferred on day 17-20. […] (FIGS. 38A-38C)

[11] = system: PyMT-OVA breast adenocarcinoma; assay: Orthotopic breast cancer model (PyMT-OVA breast adenocarcinoma); format: in vivo, mouse; conditions: combined with PD-L1 blockade, compared to PD-L1 blockade only
Source text: FIGS. 16A-16C show therapeutic blockade of KDM5A and KDM5B boosts the responses of anti-tumor CD8 T cells to ICB therapy.
(§1) Targeting KDM5B in melanoma cells leads to enhanced tumor rejection by derepressing the expression of endogenous retroviral elements in tumor cells and reducing immune evasion of tumor cells. These findings provide a strong rationale for testing the in vivo efficacy of a selective KDM5A/B inhibitor as an adjunctive treatment to ICB therapy in ICB-refractory tumors. Discussed herein is whether the pharmacological inhibition of KDM5A/B recovers the responses of anti-tumor CD8 T cells to ICB treatment during solid tumors. Utilized herein are two tumor models known to be refractory to PD-1/PD-L1 blockade therapy, including orthotopic OVA-expressing PyMT breast adenocarcinoma and GP33-expressing B16-F10 melanoma in C57BL/6 animals. One week following the adoptive transfer of Thy1.1+TCR-transgenic CD8 T cells (OVA-specific OT-I or GP33-specific P14 cells) into tumor-bearing animals, mono- or combined therapy using KDM5A/Bi plus anti-PD-L 1 treatment was started (FIG. 25A-25B). Changes in tumor growth was tracked and measure the quantity, phenotype, proliferative potential, and functional capacity of adoptively transferred anti-tumor CD8 T cells measured within tumors and draining lymph nodes using spectral cytometry as described herein. […]

[12] = system: B16-F10 melanoma; assay: B16-F10 melanoma model; format: in vivo, mouse; conditions: 5 mg/Kg, every 2 days i.p.
Source text: as §1

[13] = system: TBX21 locus; assay: DNA methylation at dysfunction-associated differentially methylated region, targeted Oxford Nanopore assay; format: cell-based, human; conditions: GSK467 with or without TGFBR1 inhibitor (Repsox)
Protocol: To determine whether targeting H3K4 demethylation can reduce de novo DNA methylation programs at the effector function-related genes in human CD8 T cells, the changes in DNA methylation levels were assessed at the dysfunction-associated differentially methylated region in dysfunctional human CD8 T cells after GSK467 (KDM5A/B inhibitor) with or without TGFBR1 inhibitor (Repsox) treatment.

[14] = system: KDM6; conditions: cited from earlier work
[15] = system: P14 CD8 T cells; conditions: mouse, in vivo
[16] = system: CT2A-gp33 glioma; assay: CT2A-gp33 glioma model; format: in vivo, mouse; conditions: combined with PD-L1 blockade; CD8-KO or Rag1-KO animals, P14 CD8 T cells transferred
[17] = system: virus-specific exhausted CD8 T cells; format: in vivo, mouse
[18] = system: TEX cells; conditions: cited from earlier work
[19] = system: other immune cells; conditions: cited from earlier work
[20] = either GSK467 or C70, C70 25 μM, days 14-28

Structure (SMILES): CCOC(=O)c1ccnc(CNCC(=O)N(CC)CCN(C)C)c1 [C70]
- KDM5A and KDM5B histone demethylase inhibition [1]: potent
- effector functions of human TEX cells [2]: enhances effector functions of human TEX cells
- polyfunctionality and memory expression programs [2, 20]: significantly enhanced polyfunctionality and memory expression programs
- cell penetration / permeability [3]: cell-permeable
- antiproliferative effect [4]: antiproliferative effect
- H3K4me3 levels [5]: genome-wide elevation of H3K4me3 levels

Structure (SMILES): O=c1nc(Oc2cnn(Cc3ccccc3)c2)[nH]c2cnccc12 [GSK467]
- tumor-killing activity [6]: augmented tumor-killing activity
- tumor cell death, frequencies of dead B16 melanoma cells [7]: increases B16 melanoma tumor death in vitro
- inhibitory effects toward other Jumonji family members [8]: no measurable inhibitory effects
- Ki ([1]; role: inhibitor, stated for KDM5A and KDM5B together): 0.01 µM
- IC50 ([1]; stated for KDM5A and KDM5B together): 0.026 µM
- development of Tterm cells [9]: impeding the development of Tterm cells
- quantity of Tcyto cells [9]: increased the quantity of Tcyto cells
- frequencies of IFNG-secreting tumor-specific CD8 T cells [10]: increased frequencies of IFNG-secreting tumor-specific CD8 T cells
- quantities of tumor-specific CD8 T cells [10]: significant increase in the quantities of tumor-specific CD8 T cells
- breast tumor control [11]: significant breast tumor control
- effector functions of human TEX cells [2]: enhances effector functions of human TEX cells
- polyfunctionality and memory expression programs [2, 20]: significantly enhanced polyfunctionality and memory expression programs
- cytolytic activity and effector functions of dysfunctional human T cells ([2]; in vitro, direct effects on CD8 T cells): enhances the cytolytic activity and effector functions of dysfunctional human T cells
- effector and memory programs in dysfunctional human CD8 T cells ([2]; late treatment): can recover effector and memory programs
- effector cytokine secretion and expression of memory-related transcription factors ([2]; monotherapy, 25 μM GSK467, days 14-28): significantly restored effector cytokine secretion and expression of memory-related transcription factors
- polyfunctionality and memory expression programs ([2]; with TGFβ1 blockade (TGFBR1 blocker), 25 μM GSK467, days 14-28): further potentiated the reactivation of polyfunctionality and memory expression programs
- tumor control, combination ([12]; combination with PD-L1 blockade, days 12-20): further potentiated with combination PD-L1 blockade therapy
- tumor control ([12]; monotherapy, days 12-20 post-tumor inoculation): significant tumor control
- cell penetration / permeability [3]: cell penetrant
- acquisition of de novo DNA methylation marks at the TBX21 locus [13]: significantly reduced the acquisition of de novo DNA methylation marks at the TBX21 locus
- inhibitory effects toward KDM6 [14]: no measurable inhibitory effects
- proliferation response and long-lived memory function after ICB treatment [15]: synergized their proliferation response and promote long-lived memory function after ICB treatment
- tumor control [16]: significant tumor control
- expansion of IFNG-secreting virus-specific CD8 T cells ([17]; mouse, in vivo): significant expansion of both Tprog and Tcyto cells, as well as IFNG-secreting virus-specific CD8 T cells
- expansion of Tprog and Tcyto cells ([17]; mouse, in vivo): significant expansion of both Tprog and Tcyto cells
- responses of virus-specific exhausted CD8 T cells to PD-L1 blockade ([17]; mouse, in vivo): enhanced the responses of virus-specific TEX cells to PD-L1 blockade; also recorded: enhanced the responses of virus-specific exhausted CD8 T cells to PD-L1 blockade
- TEX cell responses to ICB during chronic LCMV infection ([17]; with anti-PD-L1 (FIGS. 7A-7E)): enhances TEX responses to ICB

Structure (SMILES): Cc1cccc(-c2[nH]ncc2-c2ccc3ncccc3n2)n1 [TGFBR1 blocker]
- effector functions of chronically stimulated CD8 T cells ([2]; TGFβ1 blockade alone, days 14-28): recovered effector functions of chronically stimulated CD8 T cells

Structure (SMILES): Nc1ncn([C@H]2C[C@H](O)[C@@H](CO)O2)c(=O)n1 [decitabine]
- response of TEX cells, with ICB therapy [18]: synergizes with ICB therapy to rescue the response of TEX cells
- cytotoxicity and adverse effects [19]: highly cytotoxic drug that has adverse effects on other immune cells
- selectivity [19]: non-selective
